Experimental data taken from publication PMC12463676, “Small-molecule dissolution of stress granules by redox modulation benefits ALS models” (Nature Chemical Biology, 2025).
Residue numbers refer to the chain shown, from its start.

Key:
FUS–GFP [1] = biological target: T1, FUS–GFP (Homo sapiens, UniProt P35637, G156E); experiment: condensate ageing: FRAP and fibre formation; type: biochemical; conditions: 30 uM compound, 50 mM KCl, 1 mM DTT, pH 7.4, shaking; condensates
T1 construct: full-length FUS with C-terminal GFP; 6xHis-MBP tag cleaved by 3C protease; Sf9 insect cells; condensates at low salt
T1 sequence (P35637 1-526 G156E): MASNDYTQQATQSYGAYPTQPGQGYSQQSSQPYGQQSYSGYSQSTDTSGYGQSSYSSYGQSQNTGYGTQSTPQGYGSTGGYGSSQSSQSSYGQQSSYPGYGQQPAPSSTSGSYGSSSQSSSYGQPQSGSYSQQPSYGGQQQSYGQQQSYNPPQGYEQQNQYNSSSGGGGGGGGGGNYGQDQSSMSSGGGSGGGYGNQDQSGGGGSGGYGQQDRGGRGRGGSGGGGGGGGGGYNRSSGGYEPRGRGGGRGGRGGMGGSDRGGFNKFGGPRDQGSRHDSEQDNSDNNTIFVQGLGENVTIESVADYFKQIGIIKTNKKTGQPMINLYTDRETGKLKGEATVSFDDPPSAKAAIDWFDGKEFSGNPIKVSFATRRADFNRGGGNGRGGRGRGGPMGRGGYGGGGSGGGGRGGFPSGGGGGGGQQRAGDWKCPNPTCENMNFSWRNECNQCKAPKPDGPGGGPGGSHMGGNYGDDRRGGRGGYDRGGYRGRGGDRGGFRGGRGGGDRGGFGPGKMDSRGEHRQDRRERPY

FUS–GFP [2] = biological target: T2, FUS–GFP (Homo sapiens, UniProt P35637); experiment: imaging of FUS-GFP condensates in vitro; type: biochemical; conditions: 100 uM compound, 50 mM KCl, 1 mM DTT, pH 7.4, 0.7 uM FUS-GFP
T2 construct: full-length FUS with C-terminal GFP; 6xHis-MBP tag cleaved by 3C protease; Sf9 insect cells; condensates at low salt
T2 sequence (P35637 1-526): T1 sequence (P35637 1-526 G156E) with E156G

SMILES | condensate ageing: FRAP and fibre formation (FUS–GFP [1]) | imaging of FUS-GFP condensates in vitro (FUS–GFP [2])
NC(=O)CCCCC1CCSS1 (racemic) [lipoamide] | Both lipoamide and lipoic acid reduced FUS-G156E–GFP condensate hardening and fiber formation | –
O=C(O)CCCC[C@@H]1CCSS1 [lipoic acid] | Both lipoamide and lipoic acid reduced FUS-G156E–GFP condensate hardening and fiber formation | –
O=C1c2c(O)ccc(O)c2C(=O)c2c(NCCNCCO)ccc(NCCNCCO)c21 [mitoxantrone] | – | the fewer smaller drops with mitoxantrone
